These results are taken from paper PMC7696741, “Synthesis, Characterization and Assessment of the Antioxidant Activity of Cu(II), Zn(II) and Cd(II) Complexes Derived from Scorpionate Ligands” (Molecules, 2020).

Read-outs that look alike come from different tables or passages of the source.

The nature of data set [1]: Superoxide radicals scavenging activity (PMS-NADH/NBT system). Type of data set: biochemical. To be noted: for IC50: PMS-NADH/NBT, Tris-HCl pH 8.0, absorbance 560 nm, read-out: Oxygen Species Radicals IC50, O2^−. The procedure: (§1) We have carried out both enzymatic and non-enzymatic assays to evaluate the antioxidant properties of all the synthesized scorpionate complexes of Cu(II), Zn(II) and Cd(II) (1–9). All complexes were used at an initial concentration of 2.5 mM diluted in methanol.
The scavenging activity of superoxide radicals was determined by the method of Liu and Ng, slightly modified by Kang and Lee. Superoxide radicals are generated in the phenazine methosulfate-nicotinamide adenine dinucleotide (PMS-NAD) system, responsible for the oxidation of NADH (reduced form of NAD) that was analyzed by reducing the nitro blue tetrazolium chloride NBT in a microplate assay.
In a 96 well plate, samples or control were subjected to a serial dilution with 20 mM Tris-HCl (pH 8.0). Superoxide radicals are generated by adding in 200 μL of 20 mM Tris-HCl (pH 8.0), containing 78 mM NADH, NBT 50 mM to each well and 10 μL are added to the various samples of PMS 10 mM. The reaction between superoxide radicals and NBT develops a blue color, whose intensity decreases proportionally in the presence of the antioxidant compound. The change in absorbance in the various wells is measured at 560 nm with a microplate reader (Molecular Devices, Sunnyvale, CA, USA). L-ascorbate was used as a positive control. The interaction relationship with the superoxide radical (%) was calculated using the following formula:superoxide radical (%) = ((A − A1)/A) × 100 where A is the absorbance of the positive control, and A1 is the absorbance of the test samples.

The nature of data set [2]: Hydroxyl radicals scavenging activity (L-ascorbic acid-CuSO4 / cytochrome c). Format: biochemical. The settings on record: L-ascorbic acid-CuSO4, cytochrome c oxidation, pH 7.4, 550 nm; read-out: Oxygen Species Radicals IC50, OH. The method, then: as §1
The scavenging activity of superoxide radicals was determined by the method of Liu and Ng, slightly modified by Kang and Lee. Hydroxyl radicals, generated in the L-ascorbic acid-CuSO4 system, with the reduction of Cu^2+, were analyzed by the oxidation of cytochrome c in 96 microplate wells. The hydroxyl radicals were generated in 200 μL of 10 mM buffer sodium phosphate (pH 7.4), containing […], 12 μM reduced cytochrome c and the samples to be analyzed in different concentrations. The reduction of cytochrome c is produced with the addition of an excess of dithiothreitol to a solution of cytochrome c and followed by Sephadex G-15 chromatography (bed volume, 10 mL) to remove the excess of dithiothreitol.
The compounds or standards in methanol were diluted in series in a 96-well flat-bottomed plate. Stock solution was prepared in phosphate buffer (pH 7.4) containing 100 μM L-ascorbic acid and 100 μM CuSO4. Then, 200 μL of this solution was added to each well and, finally, 10 μL of 120 μM reduced cytochrome c, was added to the plate and was left to incubate for 20 min at room temperature. The change in absorbance, caused by the oxidation of cytochrome c, was measured at 550 nm with a microplate reader (Molecular Devices, Sunnyvale, CA, USA). A thiourea solution (500 μM) was used as a positive control. The scavenging activity of hydroxyl radicals of 500 […] solution of thiourea was taken as 100%. The scavenging activity of hydroxyl radicals has been calculated using the following formula:hydroxyl scavenging radicals (%) = (A − A0)/(AT − A0) × 100 where A is the absorbance of the samples, and AT and A0 is the absorbance of the thiourea and the control, respectively.

Data set [3] can be described thus: Hydrogen peroxide radicals scavenging activity. Format: biochemical. The settings on record: hydrogen peroxide in PBS, 10 min, 230 nm; read-out: Oxygen Species Radicals IC50, OOH. The method, then:
as §1
In order to determine the scavenging activity of H2O2 of different complexes or standards in methanol, the compounds were diluted in series in a 96-well flat-bottom plate with the same procedure used in previous assays. Then, 200 μL of peroxide solution was added to the various wells hydrogen in PBS (final volume, 250 μL). After 10 min of incubation, the absorbance was measured at 230 nm with a microplate reader.

Data set [4] in a line: Solubility of the isolated complexes. Type of data set: physicochemical. To be noted: for Solubility in chlorinated solvents, alcohols, acetonitrile, dimethylsulfoxide and dimethylformamide: organic solvents as listed.
A short description of data set [5]: ABTS radical scavenging activity. Format: biochemical. To be noted: ABTS+· in methanol, 10 min dark, room temperature, absorbance 630 nm. The procedure:
as §1
Total antioxidant activity was assessed as a measure of radical scavenging activity of the complexes examined against the cationic radical ABTS^+. The method is valid for both hydrophilic and hydrophobic antioxidants. The working solution is produced by the oxidation of an initial solution of ABTS, which is oxidized to ABTS^+· through the reaction with K2S2O8 (2.45 mM) and left in the dark for 12 h. After incubation, the ABTS^+· solution is diluted with methanol to obtain an absorbance of 0.706 ± 0.001 units at 734 nm, which is used as a solution for the analysis of scavenger activity.
Radical scavenging ability is measured with a modified method described initially by Re et al. for the application of a microplate 96 wells. Compounds or standards in methanol were diluted in series in the 96 well plate, as previously described. Trolox was used as a control and was loaded into the plate with the same method and dilution of the samples. The reaction is started with the addition of 200 μL of the ABTS^+· solution (final volume in the wells, 250 μL). The reaction mixture is allowed to stand in the dark for 10 min at room temperature, and the absorbance at 630 nm is measured (Multiskan JX, Thermo Labsystems Oy, Vantaa, Finland). The radical scavenging activity is estimated through the absorbance decrease at 630 nm and can be expressed as the equivalent Trolox.

Data set [6] in a line: Nitric oxide scavenging activity (sodium nitroprusside / Griess reagent). Type of data set: biochemical. To be noted: sodium nitroprusside in PBS, light, 150 min, 577 nm, read-out: Oxygen Species Radicals IC50, NO. The method, then: as §1
In order to determine the scavenging activity of the metal complexes against NO radicals, samples were added to a 96-well plate dish with a flat bottom, and were serially diluted by the same procedure used in the previous assays. In all wells, 100 μL of PBS and 50 μL of sodium nitroprusside dissolved in saline phosphate buffer (PBS), were added. The plate with the samples was incubated in the presence of light at room temperature for 150 min. Finally, an equal volume of 50 μL of Griess reagent was added to each well in order to measure the nitrite content. The plate was incubated at room temperature for 10 min until chromophore formation, and the absorbance was measured at 577 nm in a microplate reader (Molecular Devices, Sunnyvale, CA, USA).
Background: The Griess reaction detects nitrite, a stable product of nitric oxide.

The nature of data set [7]: DPPH radical scavenging activity. Format: biochemical. The settings on record: DPPH 100 μM in methanol, 37 °C, absorbance 490 nm. The method, then:
as §1
The antioxidant properties of the compounds or control substances have been measured by DPPH, which is able to react with various natural or synthetic antioxidants. A dose response curve was plotted to determine the IC50 values, and the following formula was used to calculate the percentage of radical scavenging:Radical scavenging % = [(A0 − Ac)/A0] × 100 where A0 is the absorbance of the control sample, containing the reagents except the test substance, and Ac is the absorbance of the solution of the various complexes and of the control measured after 30 min of incubation at 37 °C. Any determination is performed in triplicate.
In order to determine the DPPH radical scavenging activity of different scorpionate complexes, the compounds or standards in methanol were diluted in series in the 96 well plate with a flat bottom. The solvent used is usually the same used to dissolve the samples. In various wells containing the compounds and standards, 200 μL of DPPH in methanol solution (100 μM) were added to reach a final volume of 250 μL in all wells. After incubation at 37 °C for 20 min, the absorbance of samples was determined at 490 nm (Multiskan JX, Thermo Labsystems Oy, Vantaa, Finland). Trolox was used as a control and was loaded into the plate with the same method and dilution of the samples.

A short description of data set [8]: Overall evaluation of scavenging (antioxidant) activity, all radical assays. Format: biochemical. The settings on record: conclusions, all radical assays together. The procedure:
as §1

Data set [9] can be described thus: Air and moisture stability of the isolated powders. Type of data set: physicochemical. To be noted: pure powders.
For data set [10] the following is noted: read-out: SOD activity IC50, cited from earlier work.

What is called IC50 is the concentration needed to halve the response being measured.

With `CC(C)(C)c1cc[nH]n1.CC(C)(C)c1cc[nH]n1.CC(C)(C)c1cc[nH]n1.[Cl][Cu][Cl]` [Complex 3, [Cu(Hpz^t^Bu)3Cl2]], the IC50 in data set [1] is 0.233 ± 0.004 mM; in data set [2] it was more than 5 mM; in data set [3] it was more than 5 mM; in data set [5], 0.0972 ± 0.0038 mM; in data set [6], more than 5 mM; in [7], 0.0766 ± 0.0025 mM. The “SOD-mimic activity, times less than native bovine Cu-Zn-SOD” value in [1] (ratio of superoxide IC50 to native bovine Cu-Zn-SOD (IC50 = 0.48 μM)) is 500 times. For the same compound, in [4], the “Solubility in chlorinated solvents, alcohols, acetonitrile, dimethylsulfoxide and dimethylformamide” value (shortened to “Solubility in chlorinated solvents”) was “soluble”. In data set [4], the Solubility in water result is “insoluble”. Besides, the “Antioxidant (scavenging) activity, overall verdict” value (“Antioxidant (scavenging) activity” below) in data set [8] is “moderate antioxidant activity”.

Take `Cc1ccc2c(cnn2[BH-](n2ncc3cc(C)ccc32)n2ncc3cc(C)ccc32)c1.Cc1ccc2c(cnn2[BH-](n2ncc3cc(C)ccc32)n2ncc3cc(C)ccc32)c1.ClCCl.[Zn+2]` [Complex 4, [Zn(Tp^4Bo,5Me)2]⋅CH2Cl2]: in data set [4], the “Solubility in most organic solvents” value is “good solubility”; the “Solubility in chlorinated solvents” value is listed as “soluble”; the Solubility in water result was “insoluble”. Moreover, the “Stability to air and moisture” value in data set [9] was “air and moisture stable”.

With `ClCCl.ClCCl.ClCCl.ClCCl.[Zn+2].c1ccc2c(c1)CCc1cn([BH-](n3cc4c(n3)-c3ccccc3CC4)n3cc4c(n3)-c3ccccc3CC4)nc1-2.c1ccc2c(c1)CCc1cn([BH-](n3cc4c(n3)-c3ccccc3CC4)n3cc4c(n3)-c3ccccc3CC4)nc1-2` [Complex 5, [Zn(Tp^a)2]⋅4CH2Cl2], in data set [4], the “Solubility in most organic solvents” value is “good solubility”; the “Solubility in chlorinated solvents” value is “soluble”; the Solubility in water result was “insoluble”. Besides, the “Stability to air and moisture” value in data set [9] was “air and moisture stable”. The “Antioxidant (scavenging) activity” value in data set [8] is “moderate antioxidant activity”.

In the case of `Cc1ccc2c(cnn2[BH-](n2ncc3cc(C)ccc32)n2ncc3cc(C)ccc32)c1.Cc1ccc2c(cnn2[BH-](n2ncc3cc(C)ccc32)n2ncc3cc(C)ccc32)c1.[Cd+2]` [Complex 7, [Cd(Tp^4Bo,5Me)2]], the IC50 in data set [1], in [2], in data set [3], in [5], in data set [6] and in data set [7] was more than 5 mM throughout. In data set [4], the “Solubility in most organic solvents” value is given as “good solubility”. Also, the “Solubility in chlorinated solvents” value in data set [4] was “soluble”. Further, the Solubility in water entry in [4] is on record as “insoluble”. Moreover, the “Stability to air and moisture” value in [9] was “air and moisture stable”.

In the case of `CC(C)(C)c1cc[nH]n1.CC(C)(C)c1ccn([BH2-]n2ccc(C(C)(C)C)n2)n1.[Cl][Cd+]` [Complex 9, [Cd(Bp^t^Bu)(Hpz^t^Bu)Cl]], the IC50 in data set [1] is more than 5 mM; in data set [2], more than 5 mM; in [3] it was more than 5 mM; in data set [5], 0.151 ± 0.0042 mM; in data set [6], more than 5 mM; in data set [7] it was more than 5 mM. The “Solubility in chlorinated solvents” value in [4] is reported as “soluble”. The Solubility in water result in data set [4] is “insoluble”. Besides, in [8], the “Antioxidant (scavenging) activity” value is reported as “moderate antioxidant activity”.

Consider `Cc1c(C)c2c(c(C)c1O)CCC(C)(C(=O)O)O2` (stereo not shown) [Trolox, reference compound], for which the IC50 is more than 5 mM in data set [1]; more than 5 mM in data set [2]; more than 5 mM in data set [3]; 0.00401 ± 0.0007 mM in data set [5]; more than 5 mM in data set [6]; 0.0199 ± 0.0015 mM in data set [7].

`O=C(O)c1ccc(P(c2ccccc2)c2ccccc2)cc1.O=C(O)c1ccc(P(c2ccccc2)c2ccccc2)cc1.[Cu+].c1cnn([B-](n2cccn2)(n2cccn2)n2cccn2)c1` [[Cu(PPh2(4-C6H4COOH))2(pzTp)]]: the concentration for half-maximal inhibition (IC50) in data set [10] (reported scorpionate complex ref 21) was 0.0046 mM.

For the compound `Brc1cnn([BH-](n2cc(Br)cn2)n2cc(Br)cn2)c1.O=C(O)c1ccc(P(c2ccccc2)c2ccccc2)cc1.[Cu+]` [[Cu(PPh2(4-C6H4COOH))(Tp^4Br)]], the IC50 in data set [10] (reported scorpionate complex ref 20) was 0.0062 mM.

In the case of [Zn(Tp^t^Bu)Cl] [Complex 6], the IC50 was more than 5 mM in [1]; more than 5 mM in [2]; more than 5 mM in data set [3]; 0.0579 ± 0.0034 mM in data set [5]; more than 5 mM in [6]; more than 5 mM in data set [7]. In addition, the “Solubility in chlorinated solvents” value in data set [4] is recorded as “soluble”. In addition, the Solubility in water entry in data set [4] is on record as “insoluble”.

Take “native bovine Cu-Zn-SOD: native bovine copper-zinc superoxide dismutase enzyme”: the IC50 in data set [10] (native enzyme, literature value ref 47) is 0.00048 mM.
